Source: ChEMBL document CHEMBL2440076, “New triarylpyrazoles as broad-spectrum anticancer agents: design, synthesis, and biological evaluation” (Eur J Med Chem, 2013)
pIC50: −log10 of the molar value.

How the values were obtained:
[1] = tested on: OVCAR-4; assay: Growth inhibition of human OVCAR4 cells after 48 hrs by sulforhodamine B assay; format: functional; details: OVCAR-4, 48 h
[2] = tested on: MDA-MB-468; assay: Growth inhibition of human MDA-MB-468 cells after 48 hrs by sulforhodamine B assay; format: functional, cell-based; details: MDA-MB-468, 48 h
[3] = tested on: CAKI-1; assay: Growth inhibition of human CAKI-1 cells after 48 hrs by sulforhodamine B assay; format: functional; details: CAKI-1, 48 h
[4] = tested on: NCI-H226; assay: Growth inhibition of human NCI-H226 cells assessed as cell growth at 10 uM after 48 hrs by sulforhodamine B assay; format: functional; details: NCI-H226, 48 h, read-out: Activity
[5] = tested on: RPMI-8226; assay: Growth inhibition of human RPMI8226 cells after 48 hrs by sulforhodamine B assay; format: functional, cell-based; details: RPMI-8226, 48 h
[6] = tested on: SN12C; assay: Growth inhibition of human SN12C cells assessed as cell growth at 10 uM after 48 hrs by sulforhodamine B assay; format: functional; details: read-out: Activity
[7] = tested on: IGROV-1; assay: Growth inhibition of human IGROV1 cells assessed as cell growth at 10 uM after 48 hrs by sulforhodamine B assay; format: functional; details: IGROV-1, 48 h, read-out: Activity
[8] = tested on: T47D; assay: Growth inhibition of human T47D cells assessed as cell growth at 10 uM after 48 hrs by sulforhodamine B assay; format: functional; details: read-out: Activity
[9] = tested on: UO-31; assay: Growth inhibition of human UO31 cells assessed as cell growth at 10 uM after 48 hrs by sulforhodamine B assay; format: functional; details: UO-31, 48 h, read-out: Activity
[10] = tested on: MOLT-4; assay: Growth inhibition of human MOLT4 cells assessed as cell growth at 10 uM after 48 hrs by sulforhodamine B assay; format: functional; details: MOLT-4, 48 h, read-out: Activity
[11] = tested on: NCI-H522; assay: Growth inhibition of human NCI-H522 cells after 48 hrs by sulforhodamine B assay; format: functional; details: NCI-H522, 48 h
[12] = tested on: RPMI-8226; assay: Growth inhibition of human RPMI8226 cells assessed as cell growth at 10 uM after 48 hrs by sulforhodamine B assay; format: functional; details: RPMI-8226, 48 h, read-out: Activity
[13] = tested on: HL-60(TB); assay: Growth inhibition of human HL-60(TB) cells after 48 hrs by sulforhodamine B assay; format: functional; details: HL-60, 48 h
[14] = tested on: K562; assay: Growth inhibition of human K562 cells assessed as cell growth at 10 uM after 48 hrs by sulforhodamine B assay; format: functional; details: K562, 48 h, read-out: Activity
[15] = tested on: OVCAR-5; assay: Growth inhibition of human OVCAR5 cells assessed as cell growth at 10 uM after 48 hrs by sulforhodamine B assay; format: functional; details: OVCAR-5, 48 h, read-out: Activity
[16] = tested on: SK-MEL-5; assay: Growth inhibition of human SK-MEL-5 cells after 48 hrs by sulforhodamine B assay; format: functional; details: SK-MEL-5, 48 h
[17] = tested on: SF-539; assay: Growth inhibition of human SF539 cells assessed as cell growth at 10 uM after 48 hrs by sulforhodamine B assay; format: functional; details: SF-539, 48 h, read-out: Activity
[18] = tested on: RXF 393; assay: Growth inhibition of human RXF393 cells assessed as cell growth at 10 uM after 48 hrs by sulforhodamine B assay; format: functional; details: RXF 393, 48 h, read-out: Activity
[19] = tested on: HOP-92; assay: Growth inhibition of human HOP92 cells after 48 hrs by sulforhodamine B assay; format: functional, cell-based; details: HOP-92, 48 h
[20] = tested on: 786-0; assay: Growth inhibition of human 786-0 cells after 48 hrs by sulforhodamine B assay; format: functional; details: 786-0, 48 h
[21] = tested on: TK-10; assay: Growth inhibition of human TK10 cells after 48 hrs by sulforhodamine B assay; format: functional; details: TK-10, 48 h
[22] = tested on: OVCAR-8; assay: Growth inhibition of human OVCAR8 cells assessed as cell growth at 10 uM after 48 hrs by sulforhodamine B assay; format: functional; details: OVCAR-8, 48 h, read-out: Activity
[23] = tested on: SK-OV-3; assay: Growth inhibition of human SKOV3 cells after 48 hrs by sulforhodamine B assay; format: functional; details: SK-OV-3, 48 h
[24] = tested on: OVCAR-8; assay: Growth inhibition of human OVCAR8 cells after 48 hrs by sulforhodamine B assay; format: functional; details: OVCAR-8, 48 h
[25] = tested on: CCRF-CEM; assay: Growth inhibition of human CCRF-CEM cells after 48 hrs by sulforhodamine B assay; format: functional
[26] = tested on: SW-620; assay: Growth inhibition of human SW620 cells after 48 hrs by sulforhodamine B assay; format: functional; details: SW-620, 48 h
[27] = tested on: UACC-257; assay: Growth inhibition of human UACC257 cells assessed as cell growth at 10 uM after 48 hrs by sulforhodamine B assay; format: functional; details: UACC-257, 48 h, read-out: Activity
[28] = tested on: SK-MEL-5; assay: Growth inhibition of human SK-MEL-5 cells assessed as cell growth at 10 uM after 48 hrs by sulforhodamine B assay; format: functional; details: SK-MEL-5, 48 h, read-out: Activity
[29] = tested on: Malme-3M; assay: Growth inhibition of human MALME-3M cells assessed as cell growth at 10 uM after 48 hrs by sulforhodamine B assay; format: functional; details: read-out: Activity
[30] = tested on: MDA-MB-468; assay: Growth inhibition of human MDA-MB-468 cells assessed as cell growth at 10 uM after 48 hrs by sulforhodamine B assay; format: functional; details: MDA-MB-468, 48 h, read-out: Activity
[31] = tested on: NCI-H460; assay: Growth inhibition of human NCI-H460 cells assessed as cell growth at 10 uM after 48 hrs by sulforhodamine B assay; format: functional; details: NCI-H460, 48 h, read-out: Activity
[32] = tested on: OVCAR-3; assay: Growth inhibition of human OVCAR3 cells after 48 hrs by sulforhodamine B assay; format: functional, cell-based; details: OVCAR-3, 48 h
[33] = tested on: UACC-62; assay: Growth inhibition of human UACC62 cells assessed as cell growth at 10 uM after 48 hrs by sulforhodamine B assay; format: functional; details: UACC-62, 48 h, read-out: Activity
[34] = read-out: LC50 (the source's name)

For `COc1cc(-c2nn(-c3cccc(NC(=O)c4ccccc4)c3)cc2-c2ccncc2)ccc1Cl`, the GI50 [1] was 1.17 µM, the LC50 (concentration killing 50% of cells) [1] was over 100 µM and the TGI [1] was over 100 µM. For the same molecule, the GI50 [2] was 0.349 µM, the pIC50 [2] was 6.46 and the TGI [2] was 3.42 µM. For the same molecule, the CC50 [2, 34] was over 100 µM, the GI50 [3] was 1.16 µM and the TGI [3] was over 100 µM. For the same molecule, the CC50 [3, 34] was over 100 µM, the growth at 10 µM [4] was 39.1% and the GI50 [5] was 0.85 µM. The pIC50 [5] was 6.07, the TGI [5] was over 100 µM and the CC50 [5, 34] was over 100 µM. The growth at 10 µM [6] was 28.8%, the growth at 10 µM [7] was 47.4% and the growth at 10 µM [8] was 21.8%. It also gave a growth at 10 µM [9] of 29.8%, a growth at 10 µM [10] of 0.66% and a GI50 [11] of 0.317 µM. For the same molecule, the LC50 (concentration killing 50% of cells) [11] was over 100 µM, the TGI [11] was over 100 µM and the growth at 10 µM [12] was 9.39%. For the same molecule, the GI50 [13] was 0.479 µM, the TGI [13] was over 100 µM and the CC50 [13, 34] was over 100 µM. The growth at 10 µM [14] was 2.59%, the growth at 10 µM [15] was 66.4% and the GI50 [16] was 0.319 µM. For the same molecule, the LC50 (concentration killing 50% of cells) [16] was 7.1 µM, the TGI [16] was 1.38 µM and the growth at 10 µM [17] was -15%. For the same molecule, the growth at 10 µM [18] was -19.2%, the GI50 [19] was 0.324 µM and the pIC50 [19] was 6.49. For the same molecule, the LC50 [19] was over 100 µM, the TGI [19] was 4.71 µM and the GI50 [20] was 1.52 µM. For the same molecule, the TGI [20] was over 100 µM, the CC50 [20, 34] was over 100 µM and the GI50 [21] was 7 µM. For the same molecule, the TGI [21] was over 100 µM, the CC50 [21, 34] was over 100 µM and the growth at 10 µM [22] was 19.6%. The GI50 [23] was 1.07 µM, the TGI [23] was over 100 µM and the CC50 [23, 34] was over 100 µM. For the same molecule, the GI50 [24] was 0.995 µM, the TGI [24] was over 100 µM and the CC50 [24, 34] was over 100 µM. The GI50 [25] was 0.492 µM, the LC50 [25] was over 100 µM and the TGI [25] was over 100 µM. The GI50 [26] was 0.551 µM, the TGI [26] was over 100 µM and the CC50 [26, 34] was over 100 µM. For the same molecule, the growth at 10 µM [27] was 8.64%, the growth at 10 µM [28] was -49.4% and the growth at 10 µM [29] was 22.4%. It also gave a growth at 10 µM [30] of -19.7%, a growth at 10 µM [31] of 2.74% and a GI50 [32] of 0.334 µM. It also gave a pIC50 [32] of 6.48, a TGI [32] of 10.9 µM and a CC50 [32, 34] of 95.8 µM. The growth at 10 µM [33] was 32.5%.
